Measurements taken from patent US10954287B2, “Ras binding peptides and methods of use” (Ra Pharmaceuticals, Inc., priority 2016, dated 2021).

What was measured:
[1] = test system: human lung cancer cell line H358; assay: Cell permeability by monitoring intracellular fluorescence; type: cell-based; conditions: H358 cells treated 3.5 hours, serum-free media; compared to negative control and scrambled R4007
Procedure: Cell permeability of R4007 (a TAMRA-labeled R4000 derivative) was determined in the human lung cancer cell line H358 (ATCC, Manassas, Va.). Cells were maintained in RPMI-1640 with 10% FBS at 37° C., 95% relative humidity, 5% CO2. For experiments, cells were seeded at 50,000 cells/well in growth media on 96-well glass bottom plates (Greiner, Monroe, N.C.) and incubated 24 hours prior to treatment. Media was removed from cells and replaced with indicated treatment solutions prepared in serum-free media (0.1% DMSO final). Cells were treated for 3.5 hours, then washed 3 times with PBS, fixed with 4% formaldehyde in PBS for 5 minutes at room temperature, and washed 3 times with PBS. Cell nuclei were stained with 1 μg/ml DAPI nuclear stain for 5 minutes at room temperature. Images were captured using a Zeiss Axio Observer inverted microscope with 63× oil objective with excitation 365 nm/emission 445 for DAPI and excitation 565 nm/emission 620 for TAMRA. TAMRA signal was much stronger in cells treated with R4007 as compared to negative control and cells treated with scrambled R4007.

[2] = test system: GMPPNP-loaded H-Ras or GTP-loaded K-Ras; assay: Fluorescence polarization competition assay with TAMRA-labeled probe R4007; type: binding, human; conditions: 120 nM Ras, 30 nM probe R4007, 60 minutes at room temperature; read-out: Probe displacement (nM IC50)
In short: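 120 nM GMPPNP-loaded H-Ras or GTP-loaded K-Ras was preincubated with 30 nM TAMRA-labeled R4007 probe for 20 min at room temperature in Tris pH 7.5 buffer with MgCl2, EDTA and Triton X-100. Serially diluted competitor was then added for 60 min. Polarization was read at 535/595 nm, with Ki from a one-site Ki fit and IC50 from probe displacement.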

IC50 [2] [nM] | SMILES | intracellular TAMRA signal [1]
 | CCC[C@H](NC(C)=O)C(=O)N[C@H]1CSCc2cccc(c2)CSC[C@@H](C(=O)N[C@@H](Cc2cn(CCCNC(=O)c3ccc(-c4c5ccc(=[N+](C)C)cc-5oc5cc(N(C)C)ccc45)c(C(=O)[O-])c3)nn2)C(N)=O)NC(=O)CN(C)C(=O)[C@H](Cc2ccc(F)cc2)N(C)C(=O)[C@H](Cc2ccc(O)cc2)NC(=O)[C@H](Cc2c[nH]c3ncccc23)NC(=O)[C@H](c2ccccc2)NC(=O)[C@H](C)N(C)C(=O)[C@H](Cc2cnc[nH]2)NC(=O)[C@H](CCCCN)NC(=O)[C@H](C(C)(C)C)NC(=O)[C@H](Cc2ccc(O)cc2)NC1=O [Compound R4007] | much stronger
1960 | CCC[C@H](NC(C)=O)C(=O)N[C@H]1CSCc2cccc(c2)CSC[C@@H](C(N)=O)NC(=O)CN(C)C(=O)[C@H](Cc2ccc(F)cc2)N(C)C(=O)[C@H](Cc2ccc(O)cc2)NC(=O)[C@H](Cc2c[nH]c3ncccc23)NC(=O)[C@H](c2ccccc2)NC(=O)[C@H](C)N(C)C(=O)[C@H]2CCCN2C(=O)[C@H](CCCCN)NC(=O)[C@H](C(C)(C)C)NC(=O)[C@H](Cc2ccc(O)cc2)NC1=O (relative stereo) [Compound R4144, ACE-NVA-CYS*-TYR-TBG-LYS-DPRO-NMA-PHG-7AW-TYR-MFF-SAR-CYS*-NH2] | 
